Assay results: PMC7041945, “Misfolded proteins bind and activate death receptor 5 to trigger apoptosis during unresolved endoplasmic reticulum stress” (eLife, 2020)

Test system: CHOP, BiP, and DR5 mRNA in HCT116 cells
Assay: qPCR of UPR target transcripts (CHOP, BiP, DR5)
Assay type: cell-based, Homo sapiens
Details: Rep 2; for avg. fold induction CHOP / avg. fold induction DR5 total / fold induction CHOP / fold induction DR5 total: relative to empty traffo; for avg. fold induction CHOP / avg. fold induction DR5 total: mean of 3 replicates
Method: Cells were grown in 6-well plates and harvested with 0.5 ml of TRIzol reagent (Life Technologies) per manufacturer’s protocol to extract RNA. For cDNA synthesis, 500 ng of total RNA was reverse transcribed with 2 μl of the SuperScript VILO master mix (Life Technologies # 11755050) in a total reaction volume of 10 μl following the manufacturer’s protocol for reaction temperature and duration. The reverse transcription product was diluted to 200 μl with 10 mM Tris-HCl pH 8.2 and used at 1:100 dilution for subsequent RT-PCR reactions.
PCR samples were prepared as described by manufacturer’s protocols from iQ SYBR Green Supermix (BioRad #17088800).
For each experiment, qRT-PCR reactions were set up in triplicate and run using a CFX96 Real Time System (Bio-Rad). Quantitation cycles were determined with CFX Manager 3.0 software (Bio-Rad) and then normalized to GAPDH as an internal control.

## INS-GFP: GFP-tagged proinsulin expressed from plasmid
3 hr
  avg. fold induction CHOP: 2.592
  avg. fold induction DR5 total: 0.7038
3 hr, replicate 1
  fold induction CHOP: 2.854
  fold induction DR5 total: 0.6229
  2^-(deltaCq) CHOP: 0.03284
  2^-(deltaCq) DR5 total: 0.01816
  Cq CHOP: 24.0903
  Cq DR5 total: 24.9448
  Cq(sample) - avg Cq(GAPDH), CHOP: 4.928
  Cq(sample) - avg Cq(GAPDH), DR5 total: 5.783
3 hr, replicate 2
  fold induction CHOP: 2.329
  fold induction DR5 total: 0.8572
  2^-(deltaCq) CHOP: 0.0268
  2^-(deltaCq) DR5 total: 0.02499
  Cq CHOP: 24.3837
  Cq DR5 total: 24.4842
  Cq(sample) - avg Cq(GAPDH), CHOP: 5.2218
  Cq(sample) - avg Cq(GAPDH), DR5 total: 5.322
3 hr, replicate 3
  fold induction CHOP: 2.592
  fold induction DR5 total: 0.6314
  2^-(deltaCq) CHOP: 0.02982
  2^-(deltaCq) DR5 total: 0.01841
  Cq CHOP: 24.2295
  Cq DR5 total: 24.9253
  Cq(sample) - avg Cq(GAPDH), CHOP: 5.068
  Cq(sample) - avg Cq(GAPDH), DR5 total: 5.763
7 hr
  avg. fold induction CHOP: 6.389
  avg. fold induction DR5 total: 1.383
7 hr, replicate 1
  fold induction CHOP: 6.347
  fold induction DR5 total: 1.604
  2^-(deltaCq) CHOP: 0.07302
  2^-(deltaCq) DR5 total: 0.04677
  Cq CHOP: 23.0759
  Cq DR5 total: 23.7188
  Cq(sample) - avg Cq(GAPDH), CHOP: 3.776
  Cq(sample) - avg Cq(GAPDH), DR5 total: 4.418
7 hr, replicate 2
  fold induction CHOP: 6.646
  fold induction DR5 total: 1.272
  2^-(deltaCq) CHOP: 0.07646
  2^-(deltaCq) DR5 total: 0.03708
  Cq CHOP: 23.0096
  Cq DR5 total: 24.0535
  Cq(sample) - avg Cq(GAPDH), CHOP: 3.709
  Cq(sample) - avg Cq(GAPDH), DR5 total: 4.753
7 hr, replicate 3
  fold induction CHOP: 6.175
  fold induction DR5 total: 1.275
  2^-(deltaCq) CHOP: 0.07103
  2^-(deltaCq) DR5 total: 0.03717
  Cq CHOP: 23.1157
  Cq DR5 total: 24.0502
  Cq(sample) - avg Cq(GAPDH), CHOP: 3.815
  Cq(sample) - avg Cq(GAPDH), DR5 total: 4.75
24 hr
  avg. fold induction CHOP: 5.115
  avg. fold induction DR5 total: 1.535
24 hr, replicate 1
  fold induction CHOP: 6.073
  fold induction DR5 total: 1.494
  2^-(deltaCq) CHOP: 0.06987
  2^-(deltaCq) DR5 total: 0.04358
  Cq CHOP: 23.5439
  Cq DR5 total: 24.225
  Cq(sample) - avg Cq(GAPDH), CHOP: 3.839
  Cq(sample) - avg Cq(GAPDH), DR5 total: 4.52
24 hr, replicate 2
  fold induction CHOP: 4.514
  fold induction DR5 total: 1.718
  2^-(deltaCq) CHOP: 0.05193
  2^-(deltaCq) DR5 total: 0.05009
  Cq CHOP: 23.972
  Cq DR5 total: 24.0239
  Cq(sample) - avg Cq(GAPDH), CHOP: 4.267
  Cq(sample) - avg Cq(GAPDH), DR5 total: 4.319
24 hr, replicate 3
  fold induction CHOP: 4.759
  fold induction DR5 total: 1.392
  2^-(deltaCq) CHOP: 0.05475
  2^-(deltaCq) DR5 total: 0.04058
  Cq CHOP: 23.8955
  Cq DR5 total: 24.3278
